Values joined by “and” are separate entries in the source; they are usually repeats but may differ in a detail not shown here. Equal values may be shown once.
Tests used:
[1] = molecular target: T1, Inhibitor of nuclear factor kappa-B kinase subunit beta (Homo sapiens) (UniProt O14920); conditions: at 1 µM
T1 sequence (whole entry): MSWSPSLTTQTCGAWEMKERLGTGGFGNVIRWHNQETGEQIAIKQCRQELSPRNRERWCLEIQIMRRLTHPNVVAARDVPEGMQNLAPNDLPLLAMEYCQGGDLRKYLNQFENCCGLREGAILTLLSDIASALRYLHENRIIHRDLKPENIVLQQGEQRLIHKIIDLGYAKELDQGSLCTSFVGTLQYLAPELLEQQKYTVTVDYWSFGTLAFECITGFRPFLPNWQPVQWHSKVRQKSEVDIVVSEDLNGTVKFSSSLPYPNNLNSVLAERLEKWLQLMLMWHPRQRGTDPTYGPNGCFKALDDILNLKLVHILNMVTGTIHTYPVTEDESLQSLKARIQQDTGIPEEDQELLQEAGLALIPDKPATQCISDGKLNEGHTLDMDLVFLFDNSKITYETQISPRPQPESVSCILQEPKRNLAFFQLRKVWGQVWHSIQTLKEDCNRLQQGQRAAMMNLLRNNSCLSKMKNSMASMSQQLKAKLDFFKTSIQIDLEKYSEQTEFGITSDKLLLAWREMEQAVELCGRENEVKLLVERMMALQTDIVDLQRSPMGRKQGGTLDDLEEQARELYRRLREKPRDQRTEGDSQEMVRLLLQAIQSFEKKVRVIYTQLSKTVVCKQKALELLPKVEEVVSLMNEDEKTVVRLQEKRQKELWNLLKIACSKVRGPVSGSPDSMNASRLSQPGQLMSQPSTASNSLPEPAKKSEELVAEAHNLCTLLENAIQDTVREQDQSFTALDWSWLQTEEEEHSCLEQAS

[2] = molecular target: T2, Tyrosine-protein kinase Mer (Homo sapiens) (UniProt Q12866); conditions: at 10 µM
T2 sequence (whole entry): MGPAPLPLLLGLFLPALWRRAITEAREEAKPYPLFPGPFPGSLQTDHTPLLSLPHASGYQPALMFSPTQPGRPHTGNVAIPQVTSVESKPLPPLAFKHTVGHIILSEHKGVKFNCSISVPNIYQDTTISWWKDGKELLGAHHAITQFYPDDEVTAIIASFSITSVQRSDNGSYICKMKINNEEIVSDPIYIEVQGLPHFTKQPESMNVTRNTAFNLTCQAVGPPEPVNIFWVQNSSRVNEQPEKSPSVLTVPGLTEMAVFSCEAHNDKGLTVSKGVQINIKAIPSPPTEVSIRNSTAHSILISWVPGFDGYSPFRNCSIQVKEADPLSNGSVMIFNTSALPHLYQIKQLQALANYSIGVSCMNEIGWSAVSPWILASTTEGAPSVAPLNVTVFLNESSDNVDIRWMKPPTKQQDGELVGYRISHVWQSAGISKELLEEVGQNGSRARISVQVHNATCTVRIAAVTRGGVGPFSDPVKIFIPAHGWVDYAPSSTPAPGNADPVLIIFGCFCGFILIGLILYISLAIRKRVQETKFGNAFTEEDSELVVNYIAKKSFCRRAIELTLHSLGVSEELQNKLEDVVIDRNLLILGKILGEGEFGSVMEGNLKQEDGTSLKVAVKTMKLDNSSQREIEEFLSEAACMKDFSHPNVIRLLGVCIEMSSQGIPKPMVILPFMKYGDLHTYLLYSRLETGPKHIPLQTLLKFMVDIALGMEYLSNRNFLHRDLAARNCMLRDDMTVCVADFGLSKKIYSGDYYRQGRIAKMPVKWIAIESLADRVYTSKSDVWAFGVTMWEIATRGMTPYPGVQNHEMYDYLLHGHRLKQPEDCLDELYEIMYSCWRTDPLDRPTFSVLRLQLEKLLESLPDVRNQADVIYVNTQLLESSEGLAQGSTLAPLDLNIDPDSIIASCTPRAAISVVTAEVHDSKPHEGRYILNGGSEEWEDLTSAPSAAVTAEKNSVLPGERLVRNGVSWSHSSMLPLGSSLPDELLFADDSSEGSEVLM

[3] = molecular target: T3, Serine/threonine-protein kinase TBK1 (Homo sapiens) (UniProt Q9UHD2); conditions: at 1 µM
T3 sequence (whole entry): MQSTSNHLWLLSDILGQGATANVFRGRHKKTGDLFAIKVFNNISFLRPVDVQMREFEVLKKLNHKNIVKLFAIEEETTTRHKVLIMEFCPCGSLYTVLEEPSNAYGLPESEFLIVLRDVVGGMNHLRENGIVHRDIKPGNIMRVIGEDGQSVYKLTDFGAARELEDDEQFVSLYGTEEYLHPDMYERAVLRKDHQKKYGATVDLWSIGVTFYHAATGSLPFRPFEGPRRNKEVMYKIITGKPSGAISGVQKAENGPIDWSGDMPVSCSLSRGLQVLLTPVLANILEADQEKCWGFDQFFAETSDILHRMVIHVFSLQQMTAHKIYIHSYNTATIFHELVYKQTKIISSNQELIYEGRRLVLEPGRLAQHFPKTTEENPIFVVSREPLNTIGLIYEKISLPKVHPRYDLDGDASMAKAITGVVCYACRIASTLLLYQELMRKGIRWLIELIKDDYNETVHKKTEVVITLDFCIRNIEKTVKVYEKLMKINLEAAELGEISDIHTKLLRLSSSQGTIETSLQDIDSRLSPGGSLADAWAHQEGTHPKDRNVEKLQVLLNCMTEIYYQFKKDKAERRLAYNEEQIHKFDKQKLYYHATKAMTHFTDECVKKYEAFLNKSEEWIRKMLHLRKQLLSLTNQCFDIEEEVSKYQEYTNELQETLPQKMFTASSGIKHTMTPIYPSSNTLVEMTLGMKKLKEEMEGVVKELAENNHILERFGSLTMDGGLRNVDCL

Row | Structure (SMILES) | inhibition [1] | inhibition [2] | inhibition [3]
1 | Fc1ccc(Nc2nccc(-c3c(-c4ccc(C(F)(F)F)cc4)nn4ncccc34)n2)cc1F | 1% and -2% | -5% | -5%
2 | COc1ccc(-c2nn3ncccc3c2-c2ccnc(Nc3ccc4c(c3)OCCO4)n2)cc1 | -4% | 0% | 1% and 0%
3 | Cc1cc(-c2ccco2)cc(C)c1/C=C/c1cncc(-c2nn[nH]n2)c1 | -1% and -3% | 86% | 5% and 3%
4 | CN1CCC(n2cnc(-c3ccc(F)cc3)c2-c2ccnc(N)n2)CC1 | -3% | -7% | 0% and 2%
5 | CNC(=O)c1cncc(/C=C/c2ccccc2Cl)c1 | -5% | 5% | 2% and 1%
6 | O=C1Nc2ccccc2/C1=C/Nc1ccc2[nH]c(=O)[nH]c2c1 | -5% and -3% | -2% | 30% and 27%
7 | NS(=O)(=O)c1ccc(N/N=C2\C(=O)Nc3ccc(Cl)cc32)cc1 | -3% and -5% | 2% | 5% and 4%
8 | CCC(=O)Nc1ccc(C)c(-c2ccc(C(=O)NCC3CC3)cc2)c1 | -4% | -1% | 1% and -2%
9 | CN1CCC(C(=O)Nc2n[nH]c3nc(-c4ccc(O)cc4)c(Br)cc23)CC1 | -1% [middle of 4 runs] | 15% and 7% | 3% [middle of 4 runs]
10 | CCn1c(-c2nonc2N)nc2c(C#CC(C)(C)O)ncc(OC[C@@H]3CCCN3)c21 | -2% and -1% | -4% | 65% and 66%
11 | Cc1ccc(C(=O)NC2CCCCC2)cc1-c1ccc(C(=O)NCC2CC2)cc1 | 5% and 0% | -8% | -2% and -3%
12 | COc1ccc2cc(-c3c(-c4ccncc4)nc(-c4ccc([S+](C)[O-])cc4)n3C)ccc2c1 (stereo not given) | 2% and 3% | 77% | -3% and 0%
13 | Cc1cc(Cl)cc2c1NC(=O)C2=NNc1ccc(S(N)(=O)=O)cc1 | -6% and -1% | 63% | 29% and 26%
14 | CN(C)CCCn1c(-c2nonc2N)nc2cnccc21 | -5% and -4% | 23% | 1% and 0%
15 | Fc1ccc(-c2ncn(CCCN3CCOCC3)c2-c2ccncc2)cc1 | 0% and -5% | 21% | -1%
16 | COc1ccc2cc(-c3c(-c4ccncc4)nc(-c4ccc([S+](C)[O-])cc4C)n3C)ccc2c1 (stereo not given) | 1% and 0% | -5% | -2% and -3%
17 | Fc1ccc(-c2ncn(C3CCNCC3)c2-c2ccnc(Oc3ccc(Oc4ccccc4)cc3)n2)cc1 | 0% | 0% | 3% and 2%
18 | CCn1c(-c2nonc2N)nc2cncc(C(=O)N3CC[C@H](N)C3)c21 | -1% and -5% | 6% | 32% and 36%
19 | CCn1c(-c2nonc2N)nc2c(C#CC(C)(C)O)ncc(OCC3CCNCC3)c21 | -3% | 3% | 55% and 59%

More lines, now with the values ahead:

Row | inhibition [1] | inhibition [2] | inhibition [3] | Structure (SMILES)
20 | -5% and -6% | 4% | -5% and -7% | c1ccc(Cc2nc3ccc(Nc4ncnc5ccccc45)cc3[nH]2)cc1
21 | -3% and -1% | -2% | 4% and 1% | Nc1nc(-c2ccc(F)cc2)c(-c2ccc3ncccc3n2)s1
22 | -2% and -3% | 6% | -3% and -5% | Fc1ccc(-c2ncn(C3CCNCC3)c2-c2ccnc(Oc3ccc4c(c3)OCO4)n2)cc1
23 | -4% and -7% | 8% | 12% and 7% | CN(C)C(=O)O[C@@H]1CN[C@@H](C#Cc2cc3ncnc(Nc4ccc(OCc5cccc(F)c5)c(Cl)c4)c3s2)C1
24 | 5% and -4% | 5% | 5% and 2% | COc1cc2ncnc(Nc3ccc4c(cnn4Cc4ccccc4)c3)c2cc1OC
25 | 3% and 4% | -7% | 4% and 2% | CNC(=O)c1cc(-c2ccc(F)cc2)cc(-c2ccc(S(=O)(=O)N3CCCC3)cc2)c1N
26 | 0% and -5% | -2% | 2% and 1% | Cc1ccc(O)cc1Nc1ccnc2cc(-c3ccccn3)ccc12
27 | -1% and -2% | 0% | -1% and -3% | COc1cc(N2CCN(C(C)C)CC2)ccc1Nc1nc(Nc2ccc(F)cc2C(=O)NC[C@@H](O)CO)c2cc[nH]c2n1
28 | -3% | -4% | 7% and 3% | CN1CCN(Cc2ccc(-c3cc4ncnc(Nc5ccc(OCc6cccc(F)c6)c(Cl)c5)c4s3)o2)CC1
29 | -6% and -8% | 6% | 1% and -2% | Cc1ccc(O)cc1Nc1ccnc2ccc(S(C)(=O)=O)cc12
30 | -2% and -1% | 66% | 11% and 12% | CS(=O)(=O)CCN(CC#N)Cc1ccc(-c2ccc3ncnc(Nc4ccc(OCc5cccc(F)c5)c(Cl)c4)c3c2)o1
31 | 3% and -7% | -2% | 1% | CCS(=O)(=O)c1ccc(OC)c(Nc2nccc(N(C)c3ccc4c(C)n[nH]c4c3)n2)c1
32 | -6% and -7% | 13% | 18% and 9% | Nc1nccc(C#Cc2cncnc2Nc2ccc(OCc3cccc(F)c3)c(Cl)c2)n1
33 | 1% and -1% | 100% | 8% | COC(=O)Nc1nc2cc(Oc3ccc(NC(=O)Nc4ccccc4)cc3)ccc2[nH]1
34 | -8% and -2% | 86% | 2% and 4% | O=C(Nc1n[nH]c2cc(-c3ccc(F)cc3)ccc12)C1CC1
35 | -8% and -6% | -2% | -3% and -1% | COc1ccc(-c2oc3ncnc(N)c3c2-c2ccc(NC(=O)Nc3cc(C(F)(F)F)ccc3F)cc2)cc1
36 | -5% and -2% | 2% | 103% and 101% | COc1cc2ncn(-c3cc(OCc4ccccc4S(C)(=O)=O)c(C#N)s3)c2cc1OC
37 | -1% and 0% | 10% | 12% | COc1cc2ncn(-c3cc(OCc4ccccc4C(F)(F)F)c(C(N)=O)s3)c2cc1OC
38 | 0% and -1% | -9% | 1% and 2% | Cc1c2ccc(N(C)c3ccnc(Nc4cccc(S(N)(=O)=O)c4)n3)cc2nn1C
39 | 2% and 1% | 38% | 1% and 4% | Cc1cccc(Nc2ncc(-c3ccccc3)o2)c1
40 | -1% and -5% | 1% | -2% and -4% | CN(C)CCNC(=O)Nc1ccc(N(C)c2ccnc(Nc3ccc(CS(C)(=O)=O)cc3)n2)cc1

Reference: ChEMBL document CHEMBL2007661, “Compounds: GSK PKIS; Assays: UNC Frye lab” (2012)
